Tests used:
Format in all cases: biochemical
[1] = target: human TYK2 catalytic kinase (JH1) domain (Homo sapiens (Human), UniProt P29597); assay: ADP-Glo Kinase Assay, recombinant TYK2 catalytic kinase (JH1) domain; details: recombinant JH1 domain 2 nM, 10 μM ATP, JAK3-974 peptide, mean, read-out: TYK2 biochem IC50 (nM) Mean
Method in brief: (§1)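 Reactions contain 50 μM peptide and run 100 minutes, with enzyme at 4, 0.2, 0.3 and 2 nM for JAK1, JAK2, JAK3 and TYK2. Generated ADP is read by luminescence; IC50 derives from normalized dose-response curves.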

[2] = target: human JAK1 catalytic kinase (JH1) domain (Homo sapiens (Human), UniProt P23458); assay: ADP-Glo Kinase Assay, recombinant JAK1 catalytic kinase (JH1) domain; details: recombinant JH1 domain 4 nM, 35 μM ATP, JAK3-342 peptide, mean, read-out: JAK1 biochem IC50 (nM) Mean
human JAK1 catalytic kinase (JH1) domain, sequence (P23458 875-1153): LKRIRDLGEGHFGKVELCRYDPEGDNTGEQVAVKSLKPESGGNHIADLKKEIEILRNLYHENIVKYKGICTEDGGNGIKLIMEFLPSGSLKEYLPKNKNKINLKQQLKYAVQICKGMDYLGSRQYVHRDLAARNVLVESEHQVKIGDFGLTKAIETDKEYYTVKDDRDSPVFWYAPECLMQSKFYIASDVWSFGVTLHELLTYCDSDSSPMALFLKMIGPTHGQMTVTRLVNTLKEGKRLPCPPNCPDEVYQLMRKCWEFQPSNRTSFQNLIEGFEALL
Method in brief: as §1

[3] = target: human JAK2 catalytic kinase (JH1) domain (Homo sapiens (Human), UniProt O60674); assay: ADP-Glo Kinase Assay, recombinant JAK2 catalytic kinase (JH1) domain; details: recombinant JH1 domain 0.2 nM, 15 μM ATP, JAK3-974 peptide, mean, read-out: JAK2 biochem IC50 (nM) Mean
human JAK2 catalytic kinase (JH1) domain, sequence (O60674 849-1124): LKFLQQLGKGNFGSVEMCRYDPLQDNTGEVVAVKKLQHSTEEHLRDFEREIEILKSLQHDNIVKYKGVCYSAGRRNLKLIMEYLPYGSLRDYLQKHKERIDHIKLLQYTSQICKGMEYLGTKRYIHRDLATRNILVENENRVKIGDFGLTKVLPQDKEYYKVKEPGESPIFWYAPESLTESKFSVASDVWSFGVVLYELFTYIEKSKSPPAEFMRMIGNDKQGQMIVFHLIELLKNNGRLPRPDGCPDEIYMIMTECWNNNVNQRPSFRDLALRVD
Method in brief: as §1

[4] = target: human JAK3 catalytic kinase (JH1) domain (Homo sapiens (Human), UniProt P52333); assay: ADP-Glo Kinase Assay, recombinant JAK3 catalytic kinase (JH1) domain; details: recombinant JH1 domain 0.3 nM, 4 μM ATP, JAK3-974 peptide, mean, read-out: JAK3 biochem IC50 (nM) Mean
human JAK3 catalytic kinase (JH1) domain, sequence (P52333 822-1111): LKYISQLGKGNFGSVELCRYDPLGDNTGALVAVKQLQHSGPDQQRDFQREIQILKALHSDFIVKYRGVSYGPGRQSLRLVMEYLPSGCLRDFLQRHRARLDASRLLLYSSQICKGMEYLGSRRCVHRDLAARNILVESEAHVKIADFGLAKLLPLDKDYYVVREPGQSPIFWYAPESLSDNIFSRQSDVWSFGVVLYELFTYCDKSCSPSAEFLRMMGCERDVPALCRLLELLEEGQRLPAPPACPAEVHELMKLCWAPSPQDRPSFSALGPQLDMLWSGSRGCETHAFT
Method in brief: as §1

human TYK2 catalytic kinase (JH1) domain, sequence (P29597 897-1176): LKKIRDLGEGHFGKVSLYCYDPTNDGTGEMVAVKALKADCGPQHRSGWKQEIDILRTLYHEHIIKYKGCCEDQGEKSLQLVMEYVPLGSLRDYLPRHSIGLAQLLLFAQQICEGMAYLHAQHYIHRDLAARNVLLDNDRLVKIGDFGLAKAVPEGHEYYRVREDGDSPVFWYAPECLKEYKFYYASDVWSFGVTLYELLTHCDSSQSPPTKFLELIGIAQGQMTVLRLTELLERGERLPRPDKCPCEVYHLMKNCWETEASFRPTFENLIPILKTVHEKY

SMILES	IC50 [1] [nM]	IC50 [2] [nM]	IC50 [3] [nM]	IC50 [4] [nM]
COc1ncnc(-c2cc3c(N4CC5CCC(C4)N5C(=O)[C@@H]4C[C@H]4F)ccnn3c2)c1F [Example 107, (3-(6-(5-fluoro-6-methoxypyrimidin-4-yl)pyrrolo[1,2-b]pyridazin-4-yl)-3,8-diazabicyclo[3.2.1]octan-8-yl)((1S,2R)-2-fluorocyclopropyl)methanone]	92.3	862	1680	10000
O=C([C@@H]1C[C@H]1F)N1C2CCC1CN(c1ccnn3cc(-c4ncc(F)cn4)cc13)C2 [Example 108, ((1S,2R)-2-fluorocyclopropyl)(3-(6-(5-fluoropyrimidin-2-yl)pyrrolo[1,2-b]pyridazin-4-yl)-3,8-diazabicyclo[3.2.1]octan-8-yl)methanone]	48	909	1050	3920
COc1nn(C)cc1-c1cc2c(N3CC4CCC(C3)N4C(=O)[C@@H]3C[C@H]3F)ccnn2c1 [Example 134, ((1S,2R)-2-fluorocyclopropyl)(3-(6-(3-methoxy-1-methyl-1H-pyrazol-4-yl)pyrrolo[1,2-b]pyridazin-4-yl)-3,8-diazabicyclo[3.2.1]octan-8-yl)methanone]	1.4	114	24	588
O=C([C@H]1C[C@@H]1F)N1C2CCC1CN(c1ncnn3cc(-c4cnn(C(F)F)c4)cc13)C2 (racemic) [Example 54, Rac-(3-(6-(1-(difluoromethyl)-1H-pyrazol-4-yl)pyrrolo[2,1-f][1,2,4]triazin-4-yl)-3,8-diazabicyclo[3.2.1]octan-8-yl)((1R,2S)-2-fluorocyclopropyl)methanone]	37.1	645	1320	4230
Cn1cc(-c2cc3c(N4CC5CCC(C4)N5C(=O)C4CC4(F)F)ncnn3c2)cn1 (stereo not shown) [Example 63, (2,2-difluorocyclopropyl)(3-(6-(1-methyl-1H-pyrazol-4-yl)pyrrolo[2,1-f][1,2,4]triazin-4-yl)-3,8-diazabicyclo[3.2.1]octan-8-yl)methanone]	117	787	3050	4530
CNc1cncc(-c2cc3c(N4CC5CCC(C4)N5C(=O)[C@@H]4C[C@H]4F)ccnn3c2)n1 [Example 127, ((1S,2R)-2-fluorocyclopropyl)(3-(6-(6-(methylamino)pyrazin-2-yl)pyrrolo[1,2-b]pyridazin-4-yl)-3,8-diazabicyclo[3.2.1]octan-8-yl)methanone]	18	211	300	3140
O=C([C@H]1C[C@@H]1F)N1C2CCC1CN(c1ncnn3cc(-c4cnn(C(F)F)c4)cc13)C2 (single isomer, unassigned) [Example 75]	456	1580	≥ 10000	5060
O=C([C@@H]1C[C@H]1F)N1C2CCC1CN(c1ccnn3cc(C4CCOC4)cc13)C2 (stereo partly drawn) [Example 175, ((1S,2R)-2-fluorocyclopropyl)(3-(6-(tetrahydrofuran-3-yl)pyrrolo[1,2-b]pyridazin-4-yl)-3,8-diazabicyclo[3.2.1]octan-8-yl)methanone]	847	≥ 10000	≥ 10000	≥ 10000
Cn1cc(-c2[nH]c3nccc(N4CC5CCC(C4)N5C(=O)[C@@H]4C[C@H]4F)c3c2C#N)cn1 [Example 250, 4-(8-((1S,2R)-2-fluorocyclopropane-1-carbonyl)-3,8-diazabicyclo[3.2.1]octan-3-yl)-2-(1-methyl-1H-pyrazol-4-yl)-1H-pyrrolo[2,3-b]pyridine-3-carbonitrile]	7.1	455	53	455
Cn1cc(-c2nc3c(N4CC5CCC(C4)N5C(=O)C4CC4)ccnc3[nH]2)cn1 [Example 199, cyclopropyl(3-(2-(1-methyl-1H-pyrazol-4-yl)-3H-imidazo[4,5-b]pyridin-7-yl)-3,8-diazabicyclo[3.2.1]octan-8-yl)methanone]	6.2	92	56	219
